{"source": "ChEMBL document CHEMBL1121842", "about": "“Preparation and antibacterial activity of delta 1-thienamycin” (1981)", "tested_on": "Staphylococcus aureus", "test": "Tested for antibacterial activity against Staphylococcus aureus by disc-diffusion antibacterial assay; Inactive", "type": "functional, organism-based", "note": "Activity calls are given as the source filed them. The calls are words filed in the database; no cut-off is given here.", "data": [{"smiles": "C[C@@H](O)[C@H]1C(=O)N2[C@@H](C(=O)O)C(SCCN)=C[C@H]12", "values": [{"measurement": "inhibition", "value": "inactive"}]}]}
